The subject of series [1] is HeLa cells. In words: cell-cycle analysis by PI flow cytometry. It is filed as cell-based, human. Conditions: 40 μM, 24 h. How it is done:
Figure 4 [Ru(dppz)2(PIP)]^2+ induces Chk1 checkpoint kinase activation and G1-S cell-cycle arrest. […] See SI for densitometry. (c) Cell-cycle distributions of HeLa cells incubated with DMSO (0.2%), 1 or 2 at the stated concentrations and time. DNA content was quantified using propidium iodide (PI) and analysed by flow cytometry. […] Data mean of three independent experiments +/− SD. […] They are copied as bare numbers, left to right. / The gate numbers in panel c are very small, so 3, 5, 6, 8 and 9 cannot be told apart with certainty. All the values below are best readings. / DMSO: 0.86, 57.4, 22.5, 16.8 uncertain / 1 (40 μM, 3 h): 0.46, 72.7, 13.5, 8.77 uncertain / 1 (40 μM, 8 h): 1.69, 73.2, 15.3, 3.6 uncertain / 1 (40 μM, 24 h): 1.2, 72.9, 15.8, 6.47 uncertain. […] 32.4 is partly overlapped by the peak line.
Cells were washed with PBS and detached using Trypsin. After centrifugation at 1000 rpm for 5 min, cells were fixed in cold 70% ethanol for 30 mins, centrifuged and re-suspended in PBS. Samples were stained using 10 μg/ml propidium iodide (PI) and 200 μg/ml RNAase A for 30 mins before FACS analysis using a Biosciences LSRII Flow Cytometer. A minimum of 10,000 cells were counted for each sample and data were processed using FloJo software. […]

Series [2] concerns HeLa cells. In words: Trypan Blue exclusion assay. Type of series: cell-based, human. Particulars: 40 μM. The protocol: HeLa cells were seeded in 6 well plates at 100,000 cells/well and allowed to proliferate for 24 h. Cell cultures were treated as stated, media containing detached/dead cells were removed and retained, adherent cells washed with PBS and detached with Trypsin. Adherent and detached cells for each sample were combined, concentrated via centrifugation and re-suspended in 0.5 ml PBS containing 0.04% Trypan Blue solution. Trypan Blue-negative and Trypan Blue-positive cells were counted by haemocytometer. A minimum of 200 cells were counted for each sample.

For series [3], the system named is HeLa cervical cancer cells. The series can be described thus: cell viability with or without Chk1 inhibitor CHIR-124, HeLa. Particulars: plus CHIR-124 500 nM, 48 h constant exposure. Type of series: cell-based, human. The protocol:
(§1) With this in mind, and considering the strong Chk1 activation in response to 1, HeLa cervical cancer cells, which are […][44], were exposed to a combination of 1 plus the Chk1 inhibitor CHIR-124[45] and the impact of co-treatment upon cell viability determined. A non-cytotoxic dose of 500 nM CHIR-124 was used and results were compared to single-agent treatment. […] Minimal enhancement of the anti-proliferative effect of 2 by CHIR-124 was observed (Fig. S15b), in agreement with 2 operating via a Chk1-independent mechanism.
(§2) Figure 5 Concurrent treatment of [Ru(dppz)2(PIP)]^2+ plus the Chk1 inhibitor CHIR-124 potentiates synergistic apoptosis in cancer cells. (a) Viability of HeLa (cervical cancer) or hSAEC1-KT (normal epithelial) cells after incubation with 1 in the absence or presence of Chk1 inhibitor CHIR-124 (500 nM) for 48 h constant exposure. […] (c) Quantification of apoptotic cells for experimental conditions as shown in (b). […] (f) Quantification of γH2AX foci from cells treated as in (e). […] Minimum of 150 cells counted per experiment. […]
(§3) Cells were seeded in 96 well plates at 20,000 cells/well, allowed to proliferate for 24 h before treatment as described in the main text. […] The absorbance at 540 nm was quantified by plate reader (reference wavelength 650 nm). The metabolic activity of the cell population was determined as a percentage of a negative (solvent) control.

Series [4] deals with hSAEC1-KT human epithelial cells. In words: cell viability with or without Chk1 inhibitor CHIR-124, hSAEC1-KT. Type of series: cell-based. Conditions: normal hSAEC1-KT cells, plus CHIR-124 500 nM, 48 h, any concentration of 1. The protocol: as §1, §2, §3
The subject of series [5] is HeLa cells. The series can be described thus: quantification of apoptotic morphology (pyknosis/karyorrhexis). Type of series: cell-based, human. Particulars: single-agent treatment, 48 h (1 40 μM; CHIR-124 500 nM). How it is done: as §1
Figure 5 Concurrent treatment of [Ru(dppz)2(PIP)]^2+ plus the Chk1 inhibitor CHIR-124 potentiates synergistic apoptosis in cancer cells. (a) Viability of HeLa (cervical cancer) or hSAEC1-KT (normal epithelial) cells after incubation with 1 in the absence or presence of Chk1 inhibitor CHIR-124 (500 nM) for 48 h constant exposure. (b) Morphological evidence for apoptosis (pyknosis/karyorrhexis, arrows) in HeLa cells treated with 40 μM 1 plus CHIR-124 for 48 h. Scale bars = 20 μm. (c) Quantification of apoptotic cells for experimental conditions as shown in (b). Equivalent results for 2 (40 μM, 48 h) included. Data mean of two independent experiments +/− SD. […] (f) Quantification of γH2AX foci from cells treated as in (e). […] Minimum of 150 cells counted per experiment. […]

The record followed here is article PMC4997316, “A ruthenium polypyridyl intercalator stalls DNA replication forks, radiosensitizes human cancer cells and is enhanced by Chk1 inhibition” (Scientific Reports, 2016).

The structures appear in SMILES notation. Some results are limits rather than exact numbers.

For `Oc1ccc(-c2nc3c4cccnc4c4ncccc4c3[nH]2)cc1.[Ru+2].c1ccc2nc3c4cccnc4c4ncccc4c3nc2c1.c1ccc2nc3c4cccnc4c4ncccc4c3nc2c1` [Complex 2, [Ru(dppz)2(p-HPIP)]^2+], the “change in cell-cycle distribution compared to controls” value with HeLa cells [1] was “no change in cell-cycle distribution”.
For `[Ru+2].c1ccc(-c2nc3c4cccnc4c4ncccc4c3[nH]2)cc1.c1ccc2nc3c4cccnc4c4ncccc4c3nc2c1.c1ccc2nc3c4cccnc4c4ncccc4c3nc2c1` [Complex 1, [Ru(dppz)2(PIP)]^2+], the “HeLa cell growth (viable cell numbers)” value in the series with HeLa cells [2] (24–72 h treatment) is “completely halts HeLa cell growth”. Besides, the cytotoxicity with HeLa cells [2] (HeLa, up to 72 h, % total cells, read-out: non-viable (Trypan Blue positive) populations) is less than 20%. The “cell viability on simultaneous treatment with CHIR-124 compared to either agent alone” value in series [3] is given as “significant decrease in cell viability”. Moreover, the “impact on cell health on combination with CHIR-124” value in series [4] is on record as “no substantial impact on cell health”. For the same compound, in the series on HeLa cells [5], the “morphological evidence of apoptosis (pyknosis/karyorrhexis)” value is less than 5%.
